Source: US12053533B2, “Fluorescent probe for cyclooxygenase-2” (The Board of Trustees of the University of Illinois, priority 2020, dated 2024)

What was measured:
[1] = system: RAW 264.7 macrophage cells; assay: Cell viability (trypan blue exclusion and MTT) in RAW 264.7 macrophage cells; type: cell-based, mouse; conditions: 6 h incubation
Description: Trypan Blue Exclusion Cytotoxicity Assay. 6-well plates were seeded with 300,000 cells per well (2 mL of 150,000 cells/mL) and incubated at 37° C. with 5% CO2 for 48 to 72 h (˜60-80% confluent). Media was removed and replaced with either 5, 10, or 25 μM CoxFluor in fresh serum-free DMEM media (1.25% DMSO v/v final concentration). […] The trypsin was quenched with the addition of 1.8 mL DMEM media containing 10% FBS and the cells were mixed thoroughly before diluting 1:1 with trypan blue (0.4% in PBS w/v). Percent viability was measured using a Countess® II FL Automated Cell Counter (Thermo Fisher Scientific), where the parameters were optimized to identify live and dead cells. Viability was calculated by the relative to the vehicle control.
MTT Cytotoxicity Assay. […] The media was removed at various time points (3 or 6 h) and replaced with 200 μL 20:1 mixture of FBS-free DMEM and (3-(4,5-dimethylthiazol-2-yl)-2,5-diphenyl-tetrazolium bromide (MTT, 5 mg/mL stock in PBS). The cells were incubated for 4 h under the same conditions and then the medium was removed and replaced with DMSO (200 μL/well). The absorbance of each well was recorded after a 1:5 dilution in DMSO at 555 nm on a microplate reader. Viability was calculated by the absorbance relative to the vehicle control.

[2] = Analyte selectivity (reactive species); conditions: CoxFluor 10 μM, analytes up to 500 μM (50 equiv), 4 h
Description: Analyte Selectivity. Response of CoxFluor (10 μM) to a variety of reactive oxygen, nitrogen, carbonyl, metals, and sulfur species (1, 3, 5, or 50 equiv) were monitored using the plate reader assay. Total volume of the reaction mixture was maintained at 190 μL in 100 mM Tris-HCl buffer (pH 8.0) with a final DMSO concentration of 1.26% (v/v). Assays for CoxFluor or resorufin were initiated by the addition of the analytes and the reactions were incubated at room temperature for up to 4 h. Measurements were recorded at a range of time points, and the relative turn-on was determined relative to a buffer control containing 10 μM CoxFluor or resorufin. Superoxide anion was added as a solution of potassium superoxide in DMSO. Nitroxyl was generated in situ from a solution of Angeli's salt in degassed 10 mM potassium hydroxide solution. Angeli's salt was prepared according to previously reported literature (Methods Enzymol. 1999, 301, 279). NO was generated in situ from a solution of MAHMA-NONOate in degassed 10 mM potassium hydroxide. Peroxynitrite was prepared according to previously reported literature (Anal. Biochem. 2006, 354, 165). All metals were prepared from their chloride salt. Formaldehyde solutions were prepared by depolymerizing saturated aqueous solutions at 100° C. before use. […]

[3] = system: endogenous COX-2 activity in RAW 264.7 macrophage cells; assay: Confocal live-cell imaging of LPS-activated RAW 264.7 macrophages; type: cell-based, mouse; conditions: CoxFluor 10 μM, 4 h, LPS 1 μg/mL, BSO 200 μM
Description: Confocal Fluorescence Live-Cell Imaging of Lipopolysaccharide-activated RAW 264.7 Macrophages. The surface exposed substrate of 4-well chambered cover glasses was coated with R&D Systems™ Cultrex Poly-L-Lysine (Fisher Scientific) using the manufacturer's protocol. Plates were seeded with 180,000 cells per well (500 μL of 360,000 cells/mL in DMEM media supplemented with 10% FBS) and were allowed to incubate for 38 h at 37° C. with 5% CO2 (70-80% confluent). […] The cells were incubated under these conditions for 17 h at 37° C. with 5% CO2. […] Finally, the cells were stained under identical conditions supplemented with 10 μM CoxFluor (500 μL final volume containing 1.5% DMSO final concentration). After incubation at 37° C. with 5% CO2 for 4 h, each well was imaged using a Zeiss LSM 700 confocal microscope (n=3 technical replicates; n=4 biological replicates). Images were quantified over the entire imaging window, without any processing, using ImageJ (v. 1.51, NIH). All images were processed using identical parameters and false colored (LUT: jet.lut) in ImageJ.

[4] = system: COX-2 activity in RAW 264.7 macrophage cells; assay: Flow cytometry of LPS-induced COX-2 activity in RAW 264.7 macrophages; type: cell-based, mouse; conditions: CoxFluor 10 μM
Source text: Flow Cytometry of Lipopolysaccharide-induced COX-2 Expression in RAW 264.7 Macrophages. […] After staining, cells were pelleted using the aforementioned procedure and were resuspended in PBS. […] Replicate numbers correspond to biological replicates.

[5] = system: COX-2 activity in HEK 293T cells over-expressing human COX-2; assay: Confocal live-cell imaging of human COX-2 transfected HEK 293T cells; type: cell-based; conditions: CoxFluor 10 μM
Description: Prior to plating onto 4-well chambered cover glasses, the surface exposed substrate was coated with R&D Systems™ Cultrex Poly-L-Lysine (Fisher Scientific) according to the manufacturers protocol (allowed to dry>3 h). […] Transfections was performed using Lipofectamine 3000 (Thermo Fisher Scientific) according to the manufacturer's protocol. […] Media was removed from each well and replaced with 500 μL Opti-MEM™ Reduced Serum Media followed by the addition of 20 μL transfection master mix.
Transfections were performed using the Lipofectamine 3000 reagent according to the aforementioned protocol. Control wells were treated the same as the transfected wells without the addition of the transfection master mix. […] Each well was imaged using a Zeiss LSM 700 confocal microscope (n=3 technical replicates; n=4 biological replicates). For GSH knockdown experiments, the initial media change was performed with 1 mM NEM (0.1% DMSO final concentration) in serum-free DMEM media and the cells were allowed to incubate for 30 minutes before proceeding to the staining with CoxFluor. […] All images were processed using identical parameters and false colored (LUT: jet.lut) in ImageJ.

With `CCCCC/C=C\C/C=C\C/C=C\C/C=C\CCCC(=O)N1c2ccc(O)cc2Oc2cc(O)ccc21` [CoxFluor] the cell viability [1] was “suitable viability”, the “activation by reactive oxygen/nitrogen species and other oxidants and reductants” value [2] was “no undesirable activation” and the “fluorescent enhancement for LPS-stimulated cells relative to the control” value [3] was 1.2 fold. The “increase in median fluorescence, cells activated 19 hr compared to 4 hr” value ([4]; after BSO pre-treatment) was 1.6 fold, the “increase in activity after 19 hr LPS-activation relative to 4 hr” value ([4]; without GSH depletion) was 1.2 fold and the “fluorescence increase for transfected cells compared to the control” value ([5]; 3 h, N-ethylmaleimide glutathione depletion) was 1.2 fold. The “fluorescence enhancement for the control relative to indomethacin-treated transfected cells” value ([5]; 4.5 h) was 1.2 fold.
